Patent publication US9314026B2, “Heterocyclylpyri(mi)dinylpyrazole” (Bayer Intellectual Property GmbH, priority 2011, dated 2016)
Read-outs that look alike come from different tables or passages of the source.

Experiment: determination of the log P values by HPLC on a reverse phase column (C18), EEC-Directive 79/831 Annex V.A8
Assay type: physicochemical
Procedure: Method A Note on the determination of the log P values and mass detection: The stated log P values were determined in accordance with EEC-Directive 79/831 Annex V.A8 by HPLC (High Performance Liquid Chromatography) on a reverse phase column (C18). […] The mass detection was effected with an […] system. Method B Note on the determination of the log P values and mass detection: The stated log P values were determined in accordance with EEC-Directive 79/831 Annex V.A8 by HPLC (High Performance Liquid Chromatography) on a reverse phase column (C18). […] The mass detection was effected with the Micronass ZQ2000 mass detector from Waters. Method C Note on the determination of the log P values and mass detection: The stated log P values were determined in accordance with EEC-Directive 79/831 Annex V.A8 by UPLC (Ultra Performance Liquid Chromatography) on a reverse phase column (C18). […] The mass detection was effected with the LCT Premier or SQD mass detector from Waters.

Row | chromatographic logP (pH 2.3) | chromatographic logP (pH 2.7) | Compound | also measured
1 | 2.02 | – | O=C(Nc1cc(-c2c(-c3csc(Cl)c3)nn3c2CCC3)ccn1)C1CC1 [[XI-20], N-{4-[2-(5-chloro-3-thienyl)-5,6-dihydro-4H-pyrrolo[1,2-b]pyrazol-3-yl]pyridin-2-yl}cyclopropanecarboxamide] | –
2 | 3.54 | – | Fc1ccc(-c2nn3c(c2Br)CCC3)cc1F [[IV-2], 3-bromo-2-(3,4-difluorophenyl)-5,6-dihydro-4H-pyrrolo[1,2-b]pyrazole] | chromatographic logP (pH 2.5): 3.54
3 | 2.3 | – | CCC(=O)Nc1cc(-c2c(-c3ccc(F)cc3)nn3c2CCC3CC)ccn1 (stereo not shown) [[XI-16], N-{4-[6-ethyl-2-(4-fluorophenyl)-5,6-dihydro-4H-pyrrolo[1,2-b]pyrazol-3-yl]pyridin-2-yl}propanamide] | –
4 | 1.95 | – | CCC(=O)Nc1cc(-c2c(-c3csc(Cl)c3)nn3c2CCC3)ccn1 [[XI-12], N-{4-[2-(5-chloro-3-thienyl)-5,6-dihydro-4H-pyrrolo[1,2-b]pyrazol-3-yl]pyridin-2-yl}propanamide] | –
5 | – | – | CCC(=O)N(C(=O)C1CC1)c1cc(-c2c(-c3ccc(F)cc3)nn3c2CCCC3)ccn1 [Example 17, N-{4-[2-(4-fluorophenyl)-4,5,6,7-tetrahydropyrazolo[1,5-a]pyridin-3-yl]pyridin-2-yl}-N-propionylcyclopropanecarboxamide] | chromatographic logP: 3.22
6 | 2.81 | – | CCC1CCc2c(-c3ccnc(NC(=O)CC4CC4)c3)c(-c3ccc(F)cc3)nn21 (stereo not shown) [[XI-26], 2-cyclopropyl-N-{4-[6-ethyl-2-(4-fluorophenyl)-5,6-dihydro-4H-pyrrolo[1,2-b]pyrazol-3-yl]pyridin-2-yl}acetamide] | –
7 | 1.6 | 1.76 | CC(=O)Nc1cc(-c2c(-c3ccccc3)nn3c2C(C)CC3)ccn1 (stereo not shown) [[XI-1], N-[4-(4-methyl-2-phenyl-5,6-dihydro-4H-pyrrolo[1,2-b]pyrazol-3-yl)pyridin-2-yl]acetamide] | –
8 | 1.73 | 1.73 | OCCCc1cc(-c2ccc(F)c(F)c2)n[nH]1 [[XIV-2], 3-[3-(3,4-difluorophenyl)-1H-pyrazol-5-yl]propan-1-ol] | –
9 | 1.97 | 1.96 | OCCCc1cc(-c2ccc(F)c(Cl)c2)n[nH]1 [[XIV-3], 3-[3-(3-chloro-4-fluorophenyl)-1H-pyrazol-5-yl]propan-1-ol] | –
10 | – | 3.97 | CC1(C)OB(c2c(-c3ccc(F)cc3)nn3c2CCC3)OC1(C)C [[III-1], 2-(4-fluorophenyl)-3-(4,4,5,5-tetramethyl-1,3,2-dioxaborolan-2-yl)-5,6-dihydro-4H-pyrrolo[1,2-b]pyrazole] | –
11 | – | 2.42 | CS(=O)(=O)OCCCc1cc(-c2ccc(F)c(Cl)c2)n[nH]1 [[VII-2], 3-[3-(3-chloro-4-fluorophenyl)-1H-pyrazol-5-yl]propyl methanesulfonate] | –
12 | 4.49 | – | Clc1cc(-c2nn3c(c2I)CCCC3)cs1 [[IV-6], 2-(5-chloro-3-thienyl)-3-iodo-4,5,6,7-tetrahydropyrazolo[1,5-a]pyridine] | chromatographic logP (pH 2.5): 4.49
13 | – | 4.73 | CC1(C)OB(c2c(-c3ccc(F)c(Cl)c3)nn3c2CCC3)OC1(C)C [[III-3], 2-(3-chloro-4-fluorophenyl)-3-(4,4,5,5-tetramethyl-1,3,2-dioxaborolan-2-yl)-5,6-dihydro-4H-pyrrolo[1,2-b]pyrazole] | –
14 | 2.33 | – | CC1OCCc2c(-c3ccnc(NC(=O)C4CC4)c3)c(-c3ccc(F)cc3)nn21 (stereo not shown) [[XI-23], N-{4-[2-(4-fluorophenyl)-7-methyl-4,5-dihydropyrazolo[1,5-c][1,3]oxazin-3-yl]pyridin-2-yl}cyclopropanecarboxamide] | –
15 | 1.64 | – | CC(=O)Nc1cc(-c2c(-c3ccc(F)cc3)nn3c2CC(C)C3)ccn1 (stereo not shown) [[XI-3], N-{4-[2-(4-fluorophenyl)-5-methyl-5,6-dihydro-4H-pyrrolo[1,2-b]pyrazol-3-yl]pyridin-2-yl}acetamide] | –
16 | 1.74 | 1.74 | CC(CCO)c1cc(-c2ccc(F)cc2)n[nH]1 (stereo not shown) [[XIV-5], 3-[3-(4-fluorophenyl)-1H-pyrazol-5-yl]butan-1-ol] | –
17 | 1.72 | 1.72 | OCCCCc1cc(-c2ccc(F)cc2)n[nH]1 [[XIV-4], 4-[3-(4-fluorophenyl)-1H-pyrazol-5-yl]butan-1-ol] | –
18 | 2.39 | 2.39 | Fc1ccc(-c2cc3n(n2)CCC3)cc1 [[VI-1], 2-(4-fluorophenyl)-5,6-dihydro-4H-pyrrolo[1,2-b]pyrazole] | –
19 | 1.87 | – | CCC(=O)Nc1cc(-c2c(-c3ccccc3)nn3c2C(C)CC3)ccn1 (stereo not shown) [[XI-2], N-[4-(4-methyl-2-phenyl-5,6-dihydro-4H-pyrrolo[1,2-b]pyrazol-3-yl)pyridin-2-yl]propanamide] | –
20 | 3.78 | – | CC1CCc2c(I)c(-c3ccc(F)cc3)nn21 (stereo not shown) [[IV-5], 2-(4-fluorophenyl)-3-iodo-6-methyl-5,6-dihydro-4H-pyrrolo[1,2-b]pyrazole] | chromatographic logP (pH 2.5): 3.78

Row | Compound | chromatographic logP (pH 2.3) | chromatographic logP (pH 2.7) | also measured
21 | O=C(C1CC1)N(C(=O)C1CC1)c1cc(-c2c(-c3ccc(F)cc3)nn3c2CCCC3)ccn1 [Example 14, N-(cyclopropylcarbonyl)-N-{4-[2-(4-fluorophenyl)-4,5,6,7-tetrahydropyrazolo[1,5-a]pyridin-3-yl]pyridin-2-yl}cyclopropanecarboxamide] | – | 3.28 | LogPA (Method A (HPLC, C18, acetonitrile/water with formic acid), compounds of the type [I]): 3.28
